From ChEMBL document CHEMBL1201862, “PubChem BioAssay data set” (2004)
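1) Cells in 96-well plates. 2) Compound, 48 h, 5 concentrations. 3) Linear interpolation between surrounding doses. 4) Unreached endpoint = highest concentration. GI50 = concentration required for 50% inhibition of growth.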 The source made the active and inactive calls. Rule as the data show it: active = GI50 up to about 1.1 µM and inactive = higher.

How the values were obtained:
Assay in all cases: growth of human tumour cells (NCI), 48 h
[1] = test system: SK-MEL-28
[2] = test system: NCI-H23
[3] = test system: SNB-19
[4] = test system: MOLT-4
[5] = test system: ACHN
[6] = test system: HCT-15
[7] = test system: RPMI-8226
[8] = test system: SNB-75
[9] = test system: SF-268
[10] = test system: SF-539
[11] = test system: SF-295
[12] = test system: SK-OV-3
[13] = test system: RXF 393
[14] = test system: EKVX
[15] = test system: CAKI-1
[16] = test system: SN12C
[17] = test system: HT-29
[18] = test system: TK-10
[19] = test system: SK-MEL-5
[20] = test system: HCC 2998

SMILES | GI50 [1] | GI50 [2] | GI50 [3] | GI50 [4] | GI50 [5] | GI50 [6] | GI50 [7] | GI50 [8] | GI50 [9] | GI50 [10] | GI50 [11] | GI50 [12] | GI50 [13] | GI50 [14] | GI50 [15] | GI50 [16] | GI50 [17] | GI50 [18] | GI50 [19] | GI50 [20]
C[C@]12C[C@H](O)[C@H]3[C@@H](CCC4=CC(=O)CC[C@@]43C)[C@@H]1CC[C@@H]2c1csc(-c2ccccc2)n1 | > 100 µM (inactive) | 4.57 µM (inactive) | 29.6 µM (inactive) | 0.625 µM (active) | > 50.6 µM (inactive) | > 100 µM | 3.56 µM (inactive) | 26.4 µM (inactive) | > 53.8 µM (inactive) | 62.5 µM (inactive) | > 100 µM (inactive) | 27.5 µM (inactive) | 72.4 µM (inactive) | 21 µM (inactive) | 38.4 µM (inactive) | 59.7 µM (inactive) | > 30.3 µM (inactive) | 26.1 µM (inactive) |  | 
COc1ccc(-c2c(C#N)c(N)nc3c2CCS(=O)(=O)c2ccccc2-3)cc1 | > 100 µM (inactive) | > 100 µM (inactive) | > 100 µM (inactive) |  | > 100 µM (inactive) | > 100 µM |  | 38.5 µM (inactive) | > 100 µM (inactive) |  |  |  |  |  | > 100 µM (inactive) | > 100 µM (inactive) | > 100 µM (inactive) | > 100 µM (inactive) | > 100 µM (inactive) | > 100 µM (inactive)
Cc1cnc(SCCN2CCN(C)CC2)nc1-c1cc2ccccc2s1 | 16.2 µM (inactive) | 16.3 µM (inactive) |  | 2.52 µM (inactive) |  | 10.5 µM |  | 12.2 µM (inactive) |  | 12.6 µM (inactive) | 9.14 µM (inactive) | 3.77 µM (inactive) | 10.1 µM (inactive) |  | 1.51 µM (inactive) | 9.02 µM (inactive) | 6.03 µM (inactive) | 17.4 µM (inactive) | 3.46 µM (inactive) | 13.3 µM (inactive)
COc1ccccc1NC(=O)/C(Cc1nc2ccc([N+](=O)[O-])cc2nc1O)=N\NC(=O)C[N+](C)(C)C | > 100 µM (inactive) | > 100 µM (inactive) | > 100 µM (inactive) | 16.1 µM (inactive) | > 100 µM (inactive) | 40.7 µM |  | > 100 µM (inactive) | > 100 µM (inactive) | 49.5 µM (inactive) | 55.7 µM (inactive) | > 100 µM (inactive) | > 100 µM (inactive) | 78 µM (inactive) | 70.3 µM (inactive) | > 100 µM (inactive) | 30.5 µM (inactive) | > 100 µM (inactive) | 26.4 µM (inactive) | 29.6 µM (inactive)
Cc1cccc(C)c1NC(=S)N/C=C(\C#N)C(N)=O | > 100 µM (inactive) | > 100 µM (inactive) | > 100 µM (inactive) | > 100 µM (inactive) | > 100 µM (inactive) | > 100 µM | > 100 µM (inactive) |  | > 100 µM (inactive) | > 100 µM (inactive) | > 100 µM (inactive) | > 100 µM (inactive) | > 100 µM (inactive) | > 100 µM (inactive) | > 100 µM (inactive) | > 100 µM (inactive) | > 100 µM (inactive) | > 100 µM (inactive) | > 100 µM (inactive) | 
O1C2C1C1OC1C1OC1C1OC21 (stereo not drawn) | > 100 µM (inactive) | > 100 µM (inactive) | > 100 µM (inactive) | > 100 µM (inactive) | > 100 µM (inactive) | > 100 µM |  | 11.6 µM (inactive) | > 100 µM (inactive) |  | > 100 µM (inactive) | > 100 µM (inactive) |  | > 100 µM (inactive) | > 100 µM (inactive) | > 100 µM (inactive) | > 100 µM (inactive) | > 100 µM (inactive) | > 100 µM (inactive) | > 100 µM (inactive)
N/N=C1/C2CN3CCN(C2)CC1(c1ccc([N+](=O)[O-])cc1)C3 | > 100 µM (inactive) | > 100 µM (inactive) | > 100 µM (inactive) | > 100 µM (inactive) | > 100 µM (inactive) |  | > 100 µM (inactive) | > 100 µM (inactive) | > 100 µM (inactive) | > 100 µM (inactive) | > 100 µM (inactive) |  | > 100 µM (inactive) | > 100 µM (inactive) | > 100 µM (inactive) | > 100 µM (inactive) | > 100 µM (inactive) | > 100 µM (inactive) | > 100 µM (inactive) | 
COc1cc(/N=N\c2cccc(S(=O)(=O)O)c2)c(C)cc1/N=N\c1ccc(/C=C/c2ccc(/N=[N+](/[O-])c3ccc(/C=C/c4ccc(/N=N\c5cc(C)c(/N=N/c6cccc(S(=O)(=O)O)c6)cc5OC)cc4)c(S(=O)(=O)O)c3)cc2S(=O)(=O)O)cc1 | > 100 µM (inactive) | > 100 µM (inactive) | > 100 µM (inactive) | > 100 µM (inactive) |  | > 100 µM |  | > 100 µM (inactive) | > 100 µM (inactive) | > 100 µM (inactive) | > 100 µM (inactive) | > 100 µM (inactive) | > 100 µM (inactive) | > 100 µM (inactive) |  | > 100 µM (inactive) | > 100 µM (inactive) |  | > 100 µM (inactive) | > 100 µM (inactive)
